Target: T1, KCNQ2/3 channels (Homo sapiens, UniProt O43525+O43526)
T1 construct: expressed in transfected cells
Assay: Fluorescence assay using a voltage sensitive dye (fluorimetry)
Assay type: cell-based
Settings: CHO-K1 cells expressing KCNQ2/3 channels; for EC50: agonistic activity; for Emax: read-out: Fluorimetry % efficacy (retigabine 50 μM = 100%)
Description: Pharmacological Experiments Fluorescence Assay Using a Voltage Sensitive Dye
Human CHO-K1 cells expressing KCNQ2/3 channels are cultivated adherently at 37° C., 5% CO2 and 95% humidity in cell culture bottles (e.g. 80 cm^2 TC flasks, Nunc) with DMEM-high glucose (Sigma Aldrich, D7777) including 10% FCS (PAN Biotech, e.g. 3302-P270521) or alternatively MEM Alpha Medium (1×, liquid, Invitrogen, #22571), 10% fetal calf serum (FCS) (Invitrogen, #10270-106, heat-inactivated) and the necessary selection antibiotics.
Before being sown out for the measurements, the cells are washed with a 1×DPBS buffer without Ca^2+/Mg^2+ (e.g. Invitrogen, #14190-094) and detached from the bottom of the culture vessel by means of Accutase (PAA Laboratories, #L11-007) (incubation with Accutase for 15 min at 37° C.). The cell count then present is determined using a CASY™ cell counter (TCC model, Schärfe System) in order subsequently to apply, depending on the density optimization for the individual cell line, 20,000-30,000 cells/well/100 μl of the described nutrient medium to 96-well measuring plates of the Corning™ CellBIND™ type (Flat Clear Bottom Black Polystyrene Microplates, #3340). Incubation is then carried out for one hour at room temperature, without gassing or adjusting the humidity, followed by incubation for 24 hours at 37° C., 5% CO2 and 95% humidity.
The voltage-sensitive fluorescent dye from the Membrane Potential Assay Kit (Red™ Bulk format part R8123 for FLIPR, MDS Analytical Technologies™) is prepared by dissolving the contents of a vessel Membrane Potential Assay Kit Red Component A in 200 ml of extracellular buffer (ES buffer, 120 mM NaCl, 1 mM KCl, 10 mM HEPES, 2 mM CaCl2, 2 mM MgCl2, 10 mM glucose; pH 7.4). After removal of the nutrient medium, the cells are washed with 200 μl of ES buffer, then covered with a layer of 100 μl of the dye solution prepared above and incubated for 45 min at room temperature with the exclusion of light.
The fluorescence measurements are carried out with a BMG Labtech FLUOstar™ BMG Labtech NOVOstar™ or BMG Labtech POLARstar™ instrument (525 nm excitation, 560 nm emission, Bottom Read mode). After incubation of the dye, 50 μl of the test substances in the desired concentrations, or 50 μl of ES buffer for control purposes, are introduced into separate cavities of the measuring plate and incubated for 30 min at room temperature while being shielded from light. The fluorescence intensity of the dye is then measured for 5 min and the fluorescence value F1 of each well is thus determined at a given, constant time. 15 μl of a […] KCl solution ([…]) are then added to each well. The change in fluorescence is subsequently measured until all the relevant measured values have been obtained (mainly 5-30 min). At a given time after KCl application, a fluorescence value F2 is determined, in this case at the time of the fluorescence peak.
For calculation, the fluorescence intensity F2 is compared with the fluorescence intensity F1, and the agonistic activity of the target compound on the potassium channel is determined therefrom. F2 and F1 are calculated as follows: […]
In order to determine whether a substance has agonistic activity,
A substance has an agonistic activity on the potassium channel when
[formula] it is possible to conclude that a target compound has agonistic activity if an increase in
[formula] is to be observed as the dosage of the target compound increases.
Calculations of EC50 values are carried out with the aid of ‘Prism v4.0’ software (GraphPad Software™).

SMILES | EC50 | Emax (retigabine 50 μM = 100%) | Fluorimetry % efficacy (retigabine 50 μM = 100%) (retigabine 50 μM = 100%)
O=C(NCc1cccs1)c1cccnc1SCCCc1cccc(C(F)(F)F)c1 [compound 18, N-(Thiophen-2-yl-methyl)-2-[3-[3-(trifluoromethyl)phenyl]-propylsulfanyl]-pyridine-3-carboxylic acid amide] | 111 nM | 160% | 
O=C(NCC1C2CCC1CC2)c1cccnc1SCCCc1cccc(C(F)(F)F)c1 (stereo not shown) [compound 156, N-(7-Bicyclo[2.2.1]heptanyl-methyl)-2-[3-[3-(trifluoromethyl)phenyl]-propylsulfanyl]-pyridine-3-carboxylic acid amide] | 110 nM | 249% | 
O=C(NCC1CCCO1)c1cccnc1SCCC(F)(F)c1ccc(F)cc1 (stereo not shown) [compound 179, 2-[[3,3-Difluoro-3-(4-fluorophenyl)-propyl]sulfanyl]-N-(tetrahydro-furan-2-yl-methyl)-pyridine-3-carboxylic acid amide] | 378 nM | 234% | 
O=C(NCC12CCC(CC1)C2)c1cccnc1SCCCc1ccc(F)cc1 [compound 206, N-(1-Bicyclo[2.2.1]heptanyl-methyl)-2-[3-(4-fluorophenyl)-propylsulfanyl]-pyridine-3-carboxylic acid amide] | 40 nM | 293% | 
O=C(NCCCn1ccnn1)c1cccnc1SCCCc1ccc(F)cc1 [compound 141, 2-[3-(4-Fluorophenyl)-propylsulfanyl]-N-[3-(1H-[1,2,3]triazol-1-yl)-propyl]-pyridine-3-carboxylic acid amide] | 12800 nM | 86% | 
O=C(NCC1CC2CCC1C2)c1cccnc1SCCCc1cc(F)c(F)cc1F (stereo not shown) [compound 92, N-(5-Bicyclo[2.2.1]heptanyl-methyl)-2-[3-(2,4,5-trifluoro-phenyl)-propylsulfanyl]-pyridine-3-carboxylic acid amide] | 138 nM | 270% | 
O=C(NCc1ccccc1O)c1cccnc1SCCCc1ccc(F)cc1 [compound 83, 2-[3-(4-Fluorophenyl)-propylsulfanyl]-N-[(2-hydroxyphenyl)-methyl]-pyridine-3-carboxylic acid amide] | 139 nM | 171% | 
O=C(NCc1cccc(N2CCOCC2)c1)c1cccnc1SCCCc1ccc(F)cc1 [compound 138, 2-[3-(4-Fluorophenyl)-propylsulfanyl]-N-[(3-morpholin-4-yl-phenyl)-methyl]-pyridine-3-carboxylic acid amide] | 417 nM | 92% | 
O=C(NCC1CCCCCC1)c1cccnc1CCCS(=O)(=O)c1cccc(C(F)(F)F)c1 [compound 31, N-(Cycloheptyl-methyl)-2-[3-[[3-(trifluoromethyl)phenyl]sulfonyl]-propyl]-pyridine-3-carboxylic acid amide] | 437 nM | 98% | 
O=C(NCC1CC2CCC1C2)c1cccnc1SCCC(F)(F)c1ccc(F)cc1 (stereo not shown) [compound 115] | 42 nM |  | 213%
O=C(NCc1cccs1)c1cccnc1CCCS(=O)(=O)c1ccccc1 [compound 10, 2-[3-(Benzenesulfonyl)-propyl]-N-(thiophen-2-yl-methyl)-pyridine-3-carboxylic acid amide] |  | 13% | 
CC(CCc1ccccc1)Sc1ncccc1C(=O)NCC1CC2CCC1C2 (stereo not shown) [compound 67, N-(5-Bicyclo[2.2.1]heptanyl-methyl)-2-[(1-methyl-3-phenyl-propyl)sulfanyl]-pyridine-3-carboxylic acid amide] | 113 nM | 290% | 
O=C(NCC1CC2CCC1C2)c1cccnc1SCCOc1ccccc1 (stereo not shown) [compound 46, N-(5-Bicyclo[2.2.1]heptanyl-methyl)-2-(2-phenoxy-ethylsulfanyl)-pyridine-3-carboxylic acid amide] | 672 nM | 238% | 
O=C(NCCCc1ccccn1)c1cccnc1SCCCc1ccc(F)cc1 [compound 93, 2-[3-(4-Fluorophenyl)-propylsulfanyl]-N-(3-pyridine-2-yl-propyl)-pyridine-3-carboxylic acid amide] | 2810 nM | 154% | 
Cc1ccccc1CCNC(=O)c1cccnc1SCCCc1ccc(F)cc1 [compound 86, 2-[3-(4-Fluorophenyl)-propylsulfanyl]-N-[2-(o-tolyl)-ethyl]-pyridine-3-carboxylic acid amide] |  | 26% | 
O=C(NCc1cccs1)c1cccnc1SCCCc1cccnc1 [compound 98, 2-(3-Pyridin-3-yl-propylsulfanyl)-N-(thiophen-2-yl-methyl)-pyridine-3-carboxylic acid amide] |  | 29% | 
O=C(NCc1ccco1)c1cccnc1SCCCc1ccc(F)cc1 [compound 174, 2-[3-(4-Fluorophenyl)-propylsulfanyl]-N-(furan-2-yl-methyl)-pyridine-3-carboxylic acid amide] | 134 nM | 213% | 
O=C(NCc1ccccc1F)c1cccnc1SCCCc1ccc(F)cc1 [compound 63, N-[(2-Fluorophenyl)-methyl]-2-[3-(4-fluorophenyl)-propylsulfanyl]-pyridine-3-carboxylic acid amide] | 34 nM | 72% | 
CC(CSc1ncccc1C(=O)NCC1CC2CCC1C2)Cc1ccc(F)cc1 (stereo not shown) [compound 75, N-(5-Bicyclo[2.2.1]heptanyl-methyl)-2-[[3-(4-fluorophenyl)-2-methyl-propyl]sulfanyl]-pyridine-3-carboxylic acid amide] | 37 nM | 261% | 
C[C@@H](CCc1ccccc1)Sc1ncccc1C(=O)NCCC(C)(C)C [compound 154, N-(3,3-Dimethyl-butyl)-2-[[(1S)-1-methyl-3-phenyl-propyl]sulfanyl]-pyridine-3-carboxylic acid amide] | 237 nM | 207% | 
O=C(NCc1ccc(Cl)s1)c1cccnc1SCCCc1ccc(F)cc1 [compound 37, N-[(5-Chloro-thiophen-2-yl)-methyl]-2-[3-(4-fluorophenyl)-propylsulfanyl]-pyridine-3-carboxylic acid amide] | 74 nM | 89% | 
O=C(NCc1cc(F)cc(F)c1)c1cccnc1SCCCc1ccc(F)cc1 [compound 36, N-[(3,5-Difluoro-phenyl)-methyl]-2-[3-(4-fluorophenyl)-propylsulfanyl]-pyridine-3-carboxylic acid amide] | 45 nM | 78% | 
O=C(NCc1ccc(OC(F)(F)F)cc1)c1cccnc1SCCCc1ccc(F)cc1 [compound 79, 2-[3-(4-Fluorophenyl)-propylsulfanyl]-N-[[4-(trifluoromethyloxy)-phenyl]-methyl]-pyridine-3-carboxylic acid amide] | 101 nM | 103% | 
CCCNC(=O)c1cccnc1SCCC(F)(F)c1ccc(F)cc1 [compound 185, 2-[[3,3-Difluoro-3-(4-fluorophenyl)-propyl]sulfanyl]-N-propyl-pyridine-3-carboxylic acid amide] | 167 nM | 212% | 
O=C(NCC1CCCCCC1)c1cccnc1CCCCc1cccc(C(F)(F)F)c1 [compound 25, N-(Cycloheptyl-methyl)-2-[4-[3-(trifluoromethyl)phenyl]-butyl]-pyridine-3-carboxylic acid amide] | 1020 nM | 216% | 
O=C(NCc1ccc2c(c1)OCCO2)c1cccnc1SCCCc1ccc(F)cc1 [compound 137, N-(2,3-Dihydro-[1,4]benzodioxin-6-yl-methyl)-2-[3-(4-fluorophenyl)-propylsulfanyl]-pyridine-3-carboxylic acid amide] | 366 nM | 93% | 

— patent publication US8586755B2, “Substituted nicotinamides as KCNQ2/3 modulators” (Grünenthal GmbH, priority 2009, dated 2013)
